Test results taken from the NIST ThermoML archive (doi:10.1016/j.jct.2018.03.011).

Key:
[1] = for Normal melting temperature: Crystal; for viscosity / mass density: 101.33 kPa, Liquid; for viscosity: Falling or rolling sphere viscometry; for mass density: Vibrating tube method
[2] = Molar enthalpy of transition or fusion; details: Crystal; DSC

CCCCn1cc[n+](C)c1.[Br-] [1-butyl-3-methylimidazolium bromide]
Details | Normal melting temperature [°C]
[1], visual observation | 79.0

CCCC[N+]1(C)CCOCC1.[Br-] [4-butyl-4-methylmorpholinium bromide]
Details | Normal melting temperature [°C]
[1], DTA | 211.1

Details | Molar enthalpy of transition or fusion [kcal/mol]
[2] | 3.54

CC[N+]1(C)CCOCC1.[Br-] [N-ethyl-N-methylmorpholinium bromide]
Details | Normal melting temperature [°C]
[1], DTA | 172.5

Details | Molar enthalpy of transition or fusion [kcal/mol]
[2] | 3.99

OCCOCCO [diethylene glycol]
[1]
Details | mass density [kg/m3] | viscosity [mPa·s]
293.2 K | 1116.4 | 38.11
298.2 K | 1112.8 | 29.82
303.2 K | 1109.2 | 23.64
308.2 K | 1105.7 | 19.02
313.2 K | 1102.1 | 15.6
318.2 K | 1098.5 | 12.69
323.2 K | 1094.8 | 10.62
328.2 K | 1091.2 | 8.853
333.2 K | 1087.5 | 7.362
338.2 K | 1083.8 | 6.208
343.2 K | 1080.1 | 5.324

O=S1(=O)CCCC1 [sulfolane]
[1]
Details | mass density [kg/m3] | viscosity [mPa·s]
308.2 K | 1257.4 | 9.194
313.2 K | 1253 | 8.116
318.2 K | 1248.6 | 7.201
323.2 K | 1244.2 | 6.439
328.2 K | 1239.8 | 5.772
333.2 K | 1235.5 | 5.199
338.2 K | 1231.1 | 4.714
343.2 K | 1226.7 | 4.268

OCCOCCOCCO [triethylene glycol]
[1]
Details | mass density [kg/m3] | viscosity [mPa·s]
293.2 K | 1123.1 | 48.32
298.2 K | 1119.2 | 37.16
303.2 K | 1115.4 | 29.27
308.2 K | 1111.5 | 23.74
313.2 K | 1107.6 | 19.26
318.2 K | 1103.8 | 16.41
323.2 K | 1099.9 | 13.51
328.2 K | 1096 | 11.35
333.2 K | 1092.1 | 9.602
338.2 K | 1088.2 | 8.278
343.2 K | 1084.3 | 7.351
